In patent US20250346643A1, “TROPOMYOSIN KINASE RECEPTOR (TRK) LIGANDS AS THERAPEUTICS TO SUPPORT LIVER REGENERATION” (Vanderbilt University, priority 2024, published 2025):

Assays:
[1] = tested on: primary mouse hepatocytes; assay: Cell proliferation assay (CellTiter-Glo) in primary mouse hepatocytes; type: cell-based
Experimental: Primary hepatocyte isolation. Pdgfrb-GFP-negative or H-2Kd mice older than 4 months were anesthetized and cannulated via the portal vein. Livers were perfused with about 25 ml of pre-warmed Liver Perfusion Medium (Gibco, Waltham, MA; 17707-038) followed by about 50 ml Liver Digestion Medium (Gibco, Waltham, MA; 17703-034). Liver capsule was gently teased apart with tweezers and hepatocytes released. Cells were taken up in Hepatocyte Wash Buffer (Gibco, Waltham, MA; 17704-024) and filtered through 100 μm mesh. Cells were then centrifuged for 2 min at 100 g, 4° C. and cell pellet resuspended in ice cold 10 ml DMEM (Gibco, Waltham, MA; 11885-084)/5% FBS. 10 ml of ice cold 100% Percoll®/PBS (GE HealthCare, Chicago, IL; GE17-0891-01) was added for gradient purification and cells centrifuged for 10 min at 200 g, 4° C. Cell pellet was resuspended with 20 ml DMEM/5% FBS and centrifuged for 2 min at 100 g, 4° C. 1-2×10^3 hepatocytes were plated on collagen-coated 96-well plates in DMEM/5% FBS/Pen/Strep. Rat tail collagen I (Gibco, Waltham, MA; A1048301) was used for coating. Cell culture media was changed 3 hours after plating with either serum-free William's E media (Gibco, Waltham, MA) containing Pen/Strep (Gibco, Waltham, MA) or DMEM/5% FBS/Pen/Strep. NTF3 (STEMCELL technologies, Vancouver, Canada) was added 1 day after plating at a final concentration of 20 ng/ml and primary hepatocytes cultured for 3 days with NTF3 until analysis.
Cell proliferation assays. Primary mouse hepatocytes, HepG2 or AML 12 cells were grown in opaque-walled 96-well plates. NTF3 (final concentration 20 ng/ml) (STEMCELL Technologies, Vancouver, Canada; cat. 78074) and/or Loxo-195 (final concentration 5 nM) (Selleckchem, Houston, TX; S8636) were added into complete growth media without L-glutamine. Primary mouse hepatocytes were also grown in serum-free William's E media without supplements. Cells were analyzed by CellTiter-Glo® (Promega G7570, Madison, WI) which detects the number of viable cells on day 0 to day 5 by on detection systems GloMax® (Promega) or Bioteck Synergy H1 (Agilent, Santa Clara, CA). Mouse recombinant HGF (Abcam, Cambridge, UK; ab281797) was added to cell culture media at a final concentration 5 ng/ml. TRKB inhibitor ANA-12 (Selleckchem, Houston, TX; S7745) was diluted in DMSO (10 mM stock solution) and added to cell culture media at a final concentration of 10 nM.
Primary mouse hepatocyte isolation. Mice were anesthetized and cannulated via the portal vein. Livers were perfused with ˜25 ml of prewarmed liver perfusion medium (Gibco, Waltham, MA; 17707-038) followed by ˜50 ml of liver digestion medium (Gibco, Waltham, MA; 17703-034). The liver capsule was gently teased apart with tweezers, and hepatocytes were released. Cells were taken up in Hepatocyte Wash Buffer (Gibco, Waltham, MA; 17704-024) and filtered through a 100-μm mesh. Cells were then centrifuged for 2 min at 100 g, 4° C., and the cell pellet was resuspended in 10 ml of ice-cold DMEM (Gibco, Waltham, MA; 11885-084)/5% FBS. […] of ice-cold 100% Percoll®/PBS (GE HealthCare, Chicago, IL; GE17-0891-01) were added for gradient purification, and cells were centrifuged for 10 min at 200 g, 4° C. The cell pellet was resuspended with 20 ml of DMEM/5% FBS and centrifuged for 2 min at 100 g, 4° C. A total of 1×10^3 to 2×10^3 hepatocytes were plated on collagen-coated 96-well plates in DMEM/5% FBS/Pen/Strep. Rat tail collagen I (Gibco, Waltham, MA; A1048301) was used for coating. Cell culture media were changed 3 hours after plating with either serum-free William's E media (Gibco, Waltham, MA) containing Pen/Strep (Gibco, Waltham, MA) or DMEM/5% FBS/Pen/Strep. […]

mTORC1 = assay: Immunoblotting of HDOs for P-S6RP and P-P70S6K (mTORC1 activation); type: cell-based, human
Experimental: (§1) Human ductal organoids. The normal human liver tissue was obtained through the Cooperative Human Tissue Network (CHTN) at Vanderbilt University Medical Center. The liver was cut into very small pieces in liver digestion medium (Gibco, Waltham, MA; 17703-034). The cell suspension was filtered through a 100-μm cell strainer. The flow through was then centrifuged for 2 min at 100 g, 4° C., and the cell pellet resuspended in ice-cold DMEM (Gibco, Waltham, MA; 11885-084, supplemented by 5% FBS) and centrifuged for 2 min at 300 g. The cell pellet was gently resuspended in Matrigel® (Corning, Corning, NY; 356231) and a […] dome plated in a 24-well plate. The plate was incubated for 10-15 min at 37° C. After solidifying, complete HepatiCult™ Organoid Initiation Medium (OIM) (STEMCELL Technologies, Vancouver, Canada; 100-0384) was added. For passaging, the Matrigel dome was dissociated using TrypLE (Thermo Fisher Scientific, Waltham, MA; 12604013) and incubated at 37° C. for 5 mins. Organoids were washed by resuspending in advanced DMEM/F12 and consecutive resuspension of the organoid pellet. Organoids were resuspended at a 1:10 dilution in Matrigel® and cultured in complete HepatiCult™ Organoid Growth Medium (OGM) (STEMCELL Technologies, Vancouver, Canada; 100-0385) for organoid expansion. For hepatocytic differentiation of hepatic ductal organoids, culture medium was changed to complete HepatiCult™ Organoid Differentiation Medium (ODM) (STEMCELL Technologies, 100-0383) 4 days after passaging. Vehicle, NTF3, BDNF, HGF (20 ng/ml final concentration) or Taletrectinib (Fisher Scientific, Waltham, MA; 502030245, final concentration 10 nM) or torin2 (Fisher Scientific, Waltham, MA; s2817, final concentration 25 nM) were diluted in William's E (without L-glutamine) and added to organoids.
Immunoblotting. HDOs and mpPHH were homogenized in RIPA buffer containing proteinase inhibitors (Roche, Basel, Switzerland; cOmplete™ Mini protease inhibitor, 2 tab/10 ml buffer) and 1×HALT phosphatase inhibitors (Thermo Fisher Scientific, Waltham, MA; catalog no. 78428). Lysates were sonicated and then centrifuged for 10 min at 18,800 g. Protein concentration of supernatants was determined by Direct Detect Spectrophotometer (MilliporeSigma, Burlington, MA). HDOs were treated with growth factors as described above. Lyophilized NTF3 was solubilized with sterile-filtered PBS supplemented with 0.1% BSA, aliquoted, and stored at −80° C. until use. […] HDOs and mpPHH were collected on ice in PBS and centrifuged for 10 s, and the cell pellet was homogenized in RIPA buffer containing inhibitors (Roche, Basel, Switzerland; cOmplete™ Mini protease inhibitor, 1×HALT phosphatase inhibitors, Thermo Fisher Scientific, Waltham, MA; catalog no. 78428). Cell lysates were sonicated and centrifuged for 10 min at 18,800 g. The protein concentration of supernatants was determined by a Direct Detect® spectrophotometer (MilliporeSigma, Burlington, MA). For immunoblot analysis, 10 to 50 μg of protein diluted in […] sample buffer (Invitrogen, Waltham, MA) were analyzed per SDS-polyacrylamide gel electrophoresis (NuPAGE™, Invitrogen, Waltham, MA) using Mops buffer or MES buffer (Invitrogen, Waltham, MA). […] Semi-quantitative band densitometry was performed using ImageJ software (version 1.53).

[2] = tested on: hepatocytic differentiated human ductal organoids; assay: EdU incorporation in hepatocytic differentiated human ductal organoids (HDO); type: cell-based; conditions: co-incubation with taletrectinib 10 nM (FIG. 19C-D)
Experimental: as §1
EdU incorporation and imaging in HDO and mpPHH. A chamber slide was pre-chilled on ice and coated with Matrigel®. Chamber slide was then incubated for 3 min at 37° C. to solidify and organoids plated in 0.02% Matrigel®/complete media into coated chamber slides. Organoids were grown in complete organoid growth media (OGM) for approximately 4 days followed by incubation in organoid differentiation media (ODM) for another 4 days. Organoids were changed to William's E medium 1 day prior to experiment. Vehicle or NTF3, BDNF, HGF (20 ng/ml final concentration each) or Taletrectinib (Fisher Scientific, Waltham, MA; 502030245, final concentration 10 nM) were diluted in William's E (without L-glutamine) and added to organoids. CLICK-iT™ EdU (EdU final concentration […] incubated together with the vehicle, NTF3, BDNF or HGF). After 6 hours, organoids were fixed with 4% paraformaldehyde and permeabilized with 0.5% Triton-X 100. Further processing was performed according to CLICK-ITT EdU manufacturer's instructions. mpPHHs were seeded on collagen coated chamber slides and grown in complete hepatocyte medium (Lonza, Basel, Switzerland). Prior to EdU incorporation assays, mpPHHs were cultured in William's E medium. Vehicle or NTF3, BDNF, HGF (20 ng/ml final concentration each) or Taletrectinib (Fisher Scientific, Waltham, MA; 502030245, final concentration 10 nM) were diluted in William's E (without L-glutamine) and added to mpPHHs. Organoids were imaged in PBS in chamber slides, mpHHs were mounted with fluoromount. Five to fifteen images of random high-power fields were obtained per experiment per treatment and EdU+/Hoechst 33342+ nuclei versus all Hoechst 33342+ nuclei quantified.

O=C(Nc1ccccc1C(=O)NC1CCCCNC1=O)c1cc2ccccc2s1 (stereo not drawn) [ANA-12, reference compound]
inhibition of NTF3-induced cell proliferation ([1]; ANA-12 10 nM, NTF3 20 ng/ml, serum-free medium (FIG. 12D)): significantly inhibited
effect on BDNF-induced proliferation ([1]; co-incubation with ANA-12 10 nM (FIG. 16C)): inhibited

CC(=O)NCCc1c[nH]c2ccc(O)cc12 [NAS, N-Acetyl-5-hydroxytryptamine, reference compound]
cell proliferation, comparison of NTF3, HGF, BDNF and NAS ([1]; BDNF and HGF 20 ng/ml, NAS 500 nM (FIG. 16E)): induce proliferation to a similar extent

NC(=O)CC[C@H](N)C(=O)O [glutamine]
phosphorylated S6rp (Ser240/244) (mTORC1; HDOs cultured in glutamine free media, coincubation (FIG. 18G), Torin2 25 nM): decreased phosphorylated S6rp

C[C@@H](N)COc1ccc(-c2cnc3ccc(N[C@H](C)c4cccc(F)c4)nn23)cc1 [taletrectinib, reference compound]
effect on NTF3-induced increase of EdU+ cells [2]: decreased

insulin: a known activator of mTORC1
phosphorylation of P-p70S6 kinase and P-S6 ribosomal protein (S6RP) (mTORC1; HDO, serum free and glutamine free William's E medium (FIG. 20A-C)): significantly increased phosphorylation
